Source: US12384776B2, “Compounds and uses thereof” (Foghorn Therapeutics Inc., priority 2019, dated 2025)
pIC50: −log10 of the molar value.

molecular target: Nanoluciferase-BRD9 fusion protein (3×FLAG-NLuc-BRD9) in SYO-1 cells (Homo sapiens (Human), UniProt Q9H8M2); experiment: SYO1 BRD9 NanoLuc degradation assay; format: cell-based; conditions: SYO-1 cells expressing 3×FLAG-NLuc-BRD9, 6 hours incubation, top dose 1 μM
Method in brief: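 Degradation read as loss of NLuc signal after 6 h compound exposure (1 μM top final, 3-fold steps, 10 points, duplicates) in SYO-1 cells stably carrying 3×FLAG-NLuc-BRD9. Signal normalised between DMSO-treated cells and cells given 1 μM of a known BRD9 degrader.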

Nanoluciferase-BRD9 fusion protein (3×FLAG-NLuc-BRD9) in SYO-1 cells, sequence (Q9H8M2 whole entry, the tested form may be a part): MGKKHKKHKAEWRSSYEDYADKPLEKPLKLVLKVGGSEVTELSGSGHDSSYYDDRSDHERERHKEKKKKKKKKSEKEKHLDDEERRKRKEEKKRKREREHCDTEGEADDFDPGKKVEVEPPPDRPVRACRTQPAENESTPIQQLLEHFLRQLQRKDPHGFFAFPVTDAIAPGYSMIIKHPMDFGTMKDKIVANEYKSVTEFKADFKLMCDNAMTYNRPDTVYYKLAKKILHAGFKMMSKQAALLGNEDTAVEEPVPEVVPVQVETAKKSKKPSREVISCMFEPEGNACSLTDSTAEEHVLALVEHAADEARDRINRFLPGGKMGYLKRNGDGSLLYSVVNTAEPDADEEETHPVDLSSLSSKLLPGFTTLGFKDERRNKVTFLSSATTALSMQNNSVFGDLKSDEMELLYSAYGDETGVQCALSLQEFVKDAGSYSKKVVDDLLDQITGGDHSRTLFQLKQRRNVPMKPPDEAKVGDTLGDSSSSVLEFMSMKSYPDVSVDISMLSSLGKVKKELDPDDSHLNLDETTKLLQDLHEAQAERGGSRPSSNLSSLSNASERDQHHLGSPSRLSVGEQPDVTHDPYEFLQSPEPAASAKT

Row | Structure (SMILES) | pIC50
1 | CNC(=O)N1CCc2c(-c3cc(OC)c(CN4CCC(CCN5CCN(c6ccc7c(c6)C(=O)N(C6CCC(=O)N(COC(=O)OC(C)C)C6=O)C7=O)CC5)CC4)c(OC)c3)cn(C)c(=O)c2C1 (centres unmarked) [Compound D82] | > 8.00
2 | COc1cc(-c2cn(C)c(=O)c3c2CCN(C(=O)NCC2CC4(C2)CN(CCOc2ccc5c(c2)C(=O)N(C2CCC(=O)NC2=O)C5=O)C4)C3)cc(OC)c1CN(C)C (centres unmarked) [Compound D268] | 7.00 to 8.00
3 | CNC(=O)N1CCc2c(-c3cc(OC)c(CN4CCN(CCC5CCN(c6ccc7c(c6)C(=O)N(C6CCC(=O)NC6=O)C7=O)CC5)C(C#N)C4)c(OC)c3)cn(C)c(=O)c2C1 (centres unmarked) [Compound D93] | > 8.00
4 | CNC(=O)N1CCc2c(-c3cc(OC)c(CN4[C@H](C)CN(CCC5CCN(c6ccc7c(c6)C(=O)N(C6CCC(=O)NC6=O)C7=O)CC5)C[C@@H]4C)c(OC)c3)cn(C)c(=O)c2C1 (some centres unmarked) [Compound D141] | > 8.00
5 | CNC(=O)N1CCc2c(-c3cc(Cl)c(CN4CCN(CCC5CCN(c6ccc7c(c6)CN(C6CCC(=O)NC6=O)C7=O)CC5)CC4)c(OC)c3)cn(C)c(=O)c2C1 (centres unmarked) [Compound D55] | > 8.00
6 | CNC(=O)N1CCc2c(-c3cc(OC)c(CN4CCC(CN5CCC6(CC5)CN(c5ccc7c(c5)C(=O)N(C5CCC(=O)NC5=O)C7=O)C6)CC4)c(OC)c3)cn(C)c(=O)c2C1 (centres unmarked) [Compound D136] | > 8.00
7 | COc1cc(-c2cn(C)c(=O)c3c2CCN(C(=O)NC2CCC4(CCN(CCCOc5ccc6c(c5)C(=O)N(C5CCC(=O)NC5=O)C6=O)C4)C2)C3)cc(OC)c1CN(C)C (centres unmarked) [Compound D250] | 6.00 to 7.00
8 | CNC(=O)N1CCc2c(-c3cc(CN4CCC(CCN5CCN(c6ccc7c(c6)C(=O)N(C6CCC(=O)NC6=O)C7=O)CC5)CC4)cc(OC)c3)cn(C)c(=O)c2C1 (centres unmarked) [Compound D79] | ≤ 6.00
9 | CNC(=O)N1CCc2c(-c3cc(OC)c(CN4CCC(CN5CCN(c6ccc7c(c6)C(=O)N(C6CCC(=O)NC6=O)C7=O)CC5)C4)c(OC)c3)cn(C)c(=O)c2C1 (centres unmarked) [Compound D169] | > 8.00
10 | CNC(=O)N1CCc2c(-c3cc(OC)c(CN4CCN(CCC5CCN(c6ccc7c(c6)C(=O)N(C6CCC(=O)NC6=O)C7=O)CC5)CC4C)c(OC)c3)cn(C)c(=O)c2C1 (centres unmarked) [Compound D99] | > 8.00
11 | CNC(=O)N1CCc2c(-c3cc(OC)c(CN4CC5(CC(N6CCN(c7ccc8c(c7)C(=O)N(C7CCC(=O)NC7=O)C8=O)CC6)C5)C4)c(OC)c3)cn(C)c(=O)c2C1 (centres unmarked) [Compound D146] | > 8.00
12 | COc1cc(-c2cn(C)c(=O)c3c2CCN(C(=O)NCCCN2CC4(CCN(c5ccc6c(c5)C(=O)N(C5CCC(=O)NC5=O)C6=O)C4)C2)C3)cc(OC)c1CN(C)C (centres unmarked) [Compound D210] | 7.00 to 8.00
13 | CNC(=O)N1CCc2c(-c3cc(OC)c(CN4CCN(CCC5CCN(c6ccc7c(c6)C(=O)N(c6ccc(F)cc6F)C7=O)CC5)CC4)c(OC)c3)cn(C)c(=O)c2C1 [Compound D70] | ≤ 6.00
14 | CNC(=O)N1CCc2c(-c3cc(OC)c(CN4CCC(CCN5CCC(c6ccc7c(c6)C(=O)N(C6CCC(=O)NC6=O)C7=O)CC5)CC4)c(OC)c3)cn(C)c(=O)c2C1 (centres unmarked) [Compound D113] | > 8.00
15 | COc1cc(-c2cn(C)c(=O)c3c2CCN(C(=O)NCC2CC4(CCN(CCCOc5ccc6c(c5)C(=O)N(C5CCC(=O)NC5=O)C6=O)CC4)CO2)C3)cc(OC)c1CN(C)C (centres unmarked) [Compound D233] | 6.00 to 7.00
16 | COc1cc(-c2cn(C)c(=O)c3c2CCN(C(=O)NCCCN2CCC4(CC2)CN(c2ccc5c(c2)C(=O)N(C2CCC(=O)NC2=O)C5=O)C4)C3)cc(OC)c1CN(C)C (centres unmarked) [Compound D246] | > 8.00
17 | COc1cc(-c2cn(C)c(=O)c3c2COC3)cc(OC)c1CN1CC(CN2CCC3(CC2)CN(c2ccc4c(c2)C(=O)N(C2CCC(=O)NC2=O)C4)C3)C1 (centres unmarked) [Compound D302] | > 8.00
18 | CNC(=O)N1CCc2c(-c3cc(OC)c(CN(C)CCOCCN4CCN(c5ccc6c(c5)C(=O)N(C5CCC(=O)NC5=O)C6=O)CC4)c(OC)c3)cn(C)c(=O)c2C1 (centres unmarked) [Compound D284] | 7.00 to 8.00
19 | COc1cc(-c2cn(C)c(=O)c3c2CCN(C(=O)NC2CC4(CCN(CCCOc5ccc6c(c5)C(=O)N(C5CCC(=O)NC5=O)C6=O)C4)C2)C3)cc(OC)c1CN(C)C (centres unmarked) [Compound D262] | 6.00 to 7.00
20 | CNC(=O)N1CCc2c(-c3cc(OC)c(CN4CCC(CCN5CC6CN(c7ccc8c(c7)C(=O)N(C7CCC(=O)NC7=O)C8=O)CC6C5)CC4)c(OC)c3)cn(C)c(=O)c2C1 (centres unmarked) [Compound D196] | > 8.00
21 | CNC(=O)N1CCc2c(-c3cc(OC)c(CN4CCC(CCN5CCN(c6cc7c(c(OC)c6)C(=O)N(C6CCC(=O)NC6=O)C7)CC5)CC4)c(OC)c3)cn(C)c(=O)c2C1 (centres unmarked) [Compound D50] | 7.00 to 8.00
22 | CNC(=O)N1CCc2c(-c3cc(OC)c(CN4CCC(CCN5CCC(c6ccc7c(c6)CN(C6CCC(=O)NC6=O)C7=O)CC5)CC4)c(OC)c3)cn(C)c(=O)c2C1 (centres unmarked) [Compound D68] | > 8.00

same assay, conditions: SYO-1 cells, 6 hours, Table 6A

Row | Structure (SMILES) | pIC50
23 | COc1cc(-c2cn(C)c(=O)c3c2CCN(C(=O)NCCN(C)CCNC(=O)COc2cccc4c2C(=O)N(C2CCC(=O)NC2=O)C4=O)C3)cc(OC)c1CN(C)C (centres unmarked) [Compound D8, N-(2-[[2-(5-[4-[(dimethylamino)methyl]-3,5-dimethoxyphenyl]-7-methyl-8-oxo-3,4-dihydro-1H-2,7-naphthyridine-2-carbonylamino)ethyl](methyl)amino]ethyl)-2-[[2-(2,6-dioxopiperidin-3-yl)-1,3-dioxoisoindol-4-yl]oxy]acetamide formic acid] | < 7.00
24 | CNC(=O)N1CCc2c(-c3cc(OC)c(CN4CC(NC(=O)CCCCCOc5cccc6c5C(=O)N(C5CCC(=O)NC5=O)C6=O)C4)c(OC)c3)cn(C)c(=O)c2C1 (centres unmarked) [Compound D16, 5-(4-[[3-(6-[[2-(2,6-dioxopiperidin-3-yl)-1,3-dioxoisoindol-4-yl]oxy]hexanamido)azetidin-1-yl]methyl]-3,5-dimethoxyphenyl)-N,7-dimethyl-8-oxo-3,4-dihydro-1H-2,7-naphthyridine-2-carboxamide formic acid] | < 8.00

same assay, conditions: SYO-1 cells, 6 hours, Table 6C

Row | Structure (SMILES) | pIC50
25 | COc1cc(-c2cn(C)c(=O)c3c2COC3)cc(OC)c1CN1CCC(C#Cc2ccc3c(c2)C(=O)N(C2CCC(=O)NC2=O)C3)CC1 (centres unmarked) [Compound D370] | > 8.00
26 | COc1cc(-c2cn(C)c(=O)c3c2CCC3)cc(OC)c1CN1CCN(c2ccc3c(c2)C(=O)N(C2CCC(=O)NC2=O)C3=O)CC1 (centres unmarked) [Compound D366] | > 8.00
27 | CNC(=O)N1CCc2c(-c3cc(OC)c(CN4CCN(CCC5CCN(c6ccc7c(c6)CN(C6CCC(=O)NC6=O)C7=O)CC5)CC45CCC5)c(OC)c3)cn(C)c(=O)c2C1 (centres unmarked) [Compound D321] | > 8.00
28 | CNC(=O)N1CCc2c(-c3cc(OC)c(C4CN(c5ccc6c(c5)C(=O)N(C5CCC(=O)NC5=O)C6=O)C4)c(OC)c3)cn(C)c(=O)c2C1 (centres unmarked) [Compound D303] | > 8.00
29 | COc1cc(-c2cn(C)c(=O)c3c2COC3)cc(OC)c1CN1CCC2(CC1)CN(c1ccc3c(c1)CN(C1CCC(=O)NC1=O)C3=O)C2 (centres unmarked) [Compound D359] | > 8.00
30 | CNC(=O)N1CCc2c(-c3cc(OC)c(CN4CCN(CCC5CCN(c6ccc7c(c6)C(=O)N(C6CCC(=O)NC6=O)C7)CC5(F)F)CC4)c(OC)c3)cn(C)c(=O)c2C1 (centres unmarked) [Compound D346] | > 8.00
31 | CNC(=O)N1CCc2c(-c3cc(OC)c(CN4CCN(CCC5CCN(c6ccc7c(c6)CN(C6CCC(=O)NC6=O)C7=O)CC5(F)F)CC4)c(OC)c3)cn(C)c(=O)c2C1 (centres unmarked) [Compound D330] | > 8.00
32 | [2H]C([2H])([2H])NC(=O)N1CCc2c(-c3cc(OC)c(CN4[C@H](C)CN(CCC5CCN(c6ccc7c(c6)CN(C6CCC(=O)NC6=O)C7=O)CC5)C[C@H]4C)c(OC)c3)cn(C)c(=O)c2C1 (some centres unmarked) [Compound D324] | > 8.00
